In PMC8217813, “Bridging Computational Vaccinology and Vaccine Development Through Systematic Identification, Characterization, and Downselection of Conserved and Variable Circumsporozoite Protein CD4 T Cell Epitopes From Diverse Plasmodium falciparum Strains” (Frontiers in Immunology, 2021):

Tested on: CD4 T cells co-cultured with autologous DCs from PBMCs
Assay type: cell-based, human
Details: positive = Stimulation Index ≥1.5-fold above baseline, 5 µg/mL peptide; for Percentage of donors demonstrating IFN-γ responses, DR1 / Percentage of donors demonstrating IL-2 responses, DR1 / Percentage of donors demonstrating IL-4 responses, DR1 / Percentage of donors demonstrating IL-10 responses, DR1 / Percentage of donors demonstrating TNF-α responses, DR1: DR1 donors N=5; for Percentage of donors demonstrating IFN-γ responses, DR1 / Percentage of donors demonstrating IFN-γ responses, DR3 / Percentage of donors demonstrating IFN-γ responses, DR4 / Percentage of donors demonstrating IFN-γ responses, DR7 / Percentage of donors demonstrating IFN-γ responses, DR8 / Percentage of donors demonstrating IFN-γ responses, DR9 / Percentage of donors demonstrating IFN-γ responses, DR11 / Percentage of donors demonstrating IFN-γ responses, DR13 / Percentage of donors demonstrating IFN-γ responses, DR15: ICCS after 14-day co-culture; for Percentage of donors demonstrating IL-2 responses, DR1 / Percentage of donors demonstrating IL-4 responses, DR1 / Percentage of donors demonstrating IL-10 responses, DR1 / Percentage of donors demonstrating TNF-α responses, DR1 / Percentage of donors demonstrating IL-2 responses, DR3 / Percentage of donors demonstrating IL-4 responses, DR3 / Percentage of donors demonstrating IL-10 responses, DR3 / Percentage of donors demonstrating TNF-α responses, DR3 / Percentage of donors demonstrating IL-2 responses, DR4 / Percentage of donors demonstrating IL-4 responses, DR4 / Percentage of donors demonstrating IL-10 responses, DR4 / Percentage of donors demonstrating TNF-α responses, DR4 / Percentage of donors demonstrating IL-2 responses, DR7 / Percentage of donors demonstrating IL-4 responses, DR7 / Percentage of donors demonstrating IL-10 responses, DR7 / Percentage of donors demonstrating TNF-α responses, DR7 / Percentage of donors demonstrating IL-2 responses, DR8 / Percentage of donors demonstrating IL-4 responses, DR8 / Percentage of donors demonstrating IL-10 responses, DR8 / Percentage of donors demonstrating TNF-α responses, DR8 / Percentage of donors demonstrating IL-2 responses, DR9 / Percentage of donors demonstrating IL-4 responses, DR9 / Percentage of donors demonstrating IL-10 responses, DR9 / Percentage of donors demonstrating TNF-α responses, DR9 / Percentage of donors demonstrating IL-2 responses, DR11 / Percentage of donors demonstrating IL-4 responses, DR11 / Percentage of donors demonstrating IL-10 responses, DR11 / Percentage of donors demonstrating TNF-α responses, DR11 / Percentage of donors demonstrating IL-2 responses, DR13 / Percentage of donors demonstrating IL-4 responses, DR13 / Percentage of donors demonstrating IL-10 responses, DR13 / Percentage of donors demonstrating TNF-α responses, DR13 / Percentage of donors demonstrating IL-2 responses, DR15 / Percentage of donors demonstrating IL-4 responses, DR15 / Percentage of donors demonstrating IL-10 responses, DR15 / Percentage of donors demonstrating TNF-α responses, DR15: ICCS; for Percentage of donors demonstrating IFN-γ responses, DR3 / Percentage of donors demonstrating IL-2 responses, DR3 / Percentage of donors demonstrating IL-4 responses, DR3 / Percentage of donors demonstrating IL-10 responses, DR3 / Percentage of donors demonstrating TNF-α responses, DR3: DR3 donors N=6; for Percentage of donors demonstrating IFN-γ responses, DR4 / Percentage of donors demonstrating IL-2 responses, DR4 / Percentage of donors demonstrating IL-4 responses, DR4 / Percentage of donors demonstrating IL-10 responses, DR4 / Percentage of donors demonstrating TNF-α responses, DR4: DR4 donors N=10; for Percentage of donors demonstrating IFN-γ responses, DR7 / Percentage of donors demonstrating IL-2 responses, DR7 / Percentage of donors demonstrating IL-4 responses, DR7 / Percentage of donors demonstrating IL-10 responses, DR7 / Percentage of donors demonstrating TNF-α responses, DR7: DR7 donors N=4; for Percentage of donors demonstrating IFN-γ responses, DR8 / Percentage of donors demonstrating IL-2 responses, DR8 / Percentage of donors demonstrating IL-4 responses, DR8 / Percentage of donors demonstrating IL-10 responses, DR8 / Percentage of donors demonstrating TNF-α responses, DR8: DR8 donors N=4; for Percentage of donors demonstrating IFN-γ responses, DR9 / Percentage of donors demonstrating IL-2 responses, DR9 / Percentage of donors demonstrating IL-4 responses, DR9 / Percentage of donors demonstrating IL-10 responses, DR9 / Percentage of donors demonstrating TNF-α responses, DR9: DR9 donors N=4; for Percentage of donors demonstrating IFN-γ responses, DR11 / Percentage of donors demonstrating IL-2 responses, DR11 / Percentage of donors demonstrating IL-4 responses, DR11 / Percentage of donors demonstrating IL-10 responses, DR11 / Percentage of donors demonstrating TNF-α responses, DR11: DR11 donors N=4; for Percentage of donors demonstrating IFN-γ responses, DR13 / Percentage of donors demonstrating IL-2 responses, DR13 / Percentage of donors demonstrating IL-4 responses, DR13 / Percentage of donors demonstrating IL-10 responses, DR13 / Percentage of donors demonstrating TNF-α responses, DR13: DR13 donors N=7; for Percentage of donors demonstrating IFN-γ responses, DR15 / Percentage of donors demonstrating IL-2 responses, DR15 / Percentage of donors demonstrating IL-4 responses, DR15 / Percentage of donors demonstrating IL-10 responses, DR15 / Percentage of donors demonstrating TNF-α responses, DR15: DR15 donors N=7

DQHIEKYLKTIKNSLSTEWS [ICS10]
Percentage of donors demonstrating IFN-γ responses, DR1: 20%
Percentage of donors demonstrating IL-2 responses, DR1: 0%
Percentage of donors demonstrating IL-4 responses, DR1: 0%
Percentage of donors demonstrating IL-10 responses, DR1: 0%
Percentage of donors demonstrating TNF-α responses, DR1: 0%
Percentage of donors demonstrating IFN-γ responses, DR3: 33%
Percentage of donors demonstrating IL-2 responses, DR3: 17%
Percentage of donors demonstrating IL-4 responses, DR3: 17%
Percentage of donors demonstrating IL-10 responses, DR3: 0%
Percentage of donors demonstrating TNF-α responses, DR3: 17%
Percentage of donors demonstrating IFN-γ responses, DR4: 40%
Percentage of donors demonstrating IL-2 responses, DR4: 30%
Percentage of donors demonstrating IL-4 responses, DR4: 0%
Percentage of donors demonstrating IL-10 responses, DR4: 10%
Percentage of donors demonstrating TNF-α responses, DR4: 10%
Percentage of donors demonstrating IFN-γ responses, DR7: 75%
Percentage of donors demonstrating IL-2 responses, DR7: 25%
Percentage of donors demonstrating IL-4 responses, DR7: 0%
Percentage of donors demonstrating IL-10 responses, DR7: 25%
Percentage of donors demonstrating TNF-α responses, DR7: 25%
Percentage of donors demonstrating IFN-γ responses, DR8: 0%
Percentage of donors demonstrating IL-2 responses, DR8: 0%
Percentage of donors demonstrating IL-4 responses, DR8: 0%
Percentage of donors demonstrating IL-10 responses, DR8: 0%
Percentage of donors demonstrating TNF-α responses, DR8: 0%
Percentage of donors demonstrating IFN-γ responses, DR9: 25%
Percentage of donors demonstrating IL-2 responses, DR9: 25%
Percentage of donors demonstrating IL-4 responses, DR9: 0%
Percentage of donors demonstrating IL-10 responses, DR9: 0%
Percentage of donors demonstrating TNF-α responses, DR9: 25%
Percentage of donors demonstrating IFN-γ responses, DR11: 50%
Percentage of donors demonstrating IL-2 responses, DR11: 50%
Percentage of donors demonstrating IL-4 responses, DR11: 0%
Percentage of donors demonstrating IL-10 responses, DR11: 0%
Percentage of donors demonstrating TNF-α responses, DR11: 25%
Percentage of donors demonstrating IFN-γ responses, DR13: 29%
Percentage of donors demonstrating IL-2 responses, DR13: 14%
Percentage of donors demonstrating IL-4 responses, DR13: 0%
Percentage of donors demonstrating IL-10 responses, DR13: 0%
Percentage of donors demonstrating TNF-α responses, DR13: 14%
Percentage of donors demonstrating IFN-γ responses, DR15: 57%
Percentage of donors demonstrating IL-2 responses, DR15: 14%
Percentage of donors demonstrating IL-4 responses, DR15: 14%
Percentage of donors demonstrating IL-10 responses, DR15: 0%
Percentage of donors demonstrating TNF-α responses, DR15: 14%

DKHIEKYLKRIQNSLSTEWS [ICS9]
Percentage of donors demonstrating IFN-γ responses, DR1: 40%
Percentage of donors demonstrating IL-2 responses, DR1: 20%
Percentage of donors demonstrating IL-4 responses, DR1: 0%
Percentage of donors demonstrating IL-10 responses, DR1: 0%
Percentage of donors demonstrating TNF-α responses, DR1: 40%
Percentage of donors demonstrating IFN-γ responses, DR3: 50%
Percentage of donors demonstrating IL-2 responses, DR3: 33%
Percentage of donors demonstrating IL-4 responses, DR3: 33%
Percentage of donors demonstrating IL-10 responses, DR3: 17%
Percentage of donors demonstrating TNF-α responses, DR3: 50%
Percentage of donors demonstrating IFN-γ responses, DR4: 70%
Percentage of donors demonstrating IL-2 responses, DR4: 50%
Percentage of donors demonstrating IL-4 responses, DR4: 0%
Percentage of donors demonstrating IL-10 responses, DR4: 10%
Percentage of donors demonstrating TNF-α responses, DR4: 70%
Percentage of donors demonstrating IFN-γ responses, DR7: 75%
Percentage of donors demonstrating IL-2 responses, DR7: 50%
Percentage of donors demonstrating IL-4 responses, DR7: 25%
Percentage of donors demonstrating IL-10 responses, DR7: 0%
Percentage of donors demonstrating TNF-α responses, DR7: 50%
Percentage of donors demonstrating IFN-γ responses, DR8: 50%
Percentage of donors demonstrating IL-2 responses, DR8: 75%
Percentage of donors demonstrating IL-4 responses, DR8: 0%
Percentage of donors demonstrating IL-10 responses, DR8: 0%
Percentage of donors demonstrating TNF-α responses, DR8: 100%
Percentage of donors demonstrating IFN-γ responses, DR9: 50%
Percentage of donors demonstrating IL-2 responses, DR9: 50%
Percentage of donors demonstrating IL-4 responses, DR9: 0%
Percentage of donors demonstrating IL-10 responses, DR9: 0%
Percentage of donors demonstrating TNF-α responses, DR9: 50%
Percentage of donors demonstrating IFN-γ responses, DR11: 75%
Percentage of donors demonstrating IL-2 responses, DR11: 50%
Percentage of donors demonstrating IL-4 responses, DR11: 0%
Percentage of donors demonstrating IL-10 responses, DR11: 0%
Percentage of donors demonstrating TNF-α responses, DR11: 75%
Percentage of donors demonstrating IFN-γ responses, DR13: 43%
Percentage of donors demonstrating IL-2 responses, DR13: 43%
Percentage of donors demonstrating IL-4 responses, DR13: 0%
Percentage of donors demonstrating IL-10 responses, DR13: 14%
Percentage of donors demonstrating TNF-α responses, DR13: 57%
Percentage of donors demonstrating IFN-γ responses, DR15: 57%
Percentage of donors demonstrating IL-2 responses, DR15: 43%
Percentage of donors demonstrating IL-4 responses, DR15: 14%
Percentage of donors demonstrating IL-10 responses, DR15: 43%
Percentage of donors demonstrating TNF-α responses, DR15: 43%
